Measurements: patent US9708314B2, “Heterocyclic amide compound” (NISSAN CHEMICAL INDUSTRIES, LTD., priority 2013, dated 2017)

Tests used:
Type in all cases: in vivo
[1] = system: directly sowed Oryza sativa; assay: Test Example 3: effect on crop by application to foliage (Wagner pot, water depth 0.1-0.5 cm); conditions: Nineteenth Table; application to foliage; application herbicide amount 320 g/ha
Procedure, shortened: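 Rice-field weeds and directly sown rice were grown 14 days in flooded alluvial soil (water depth 0.1–0.5 cm) at 25–30 °C in a greenhouse. An emulsion formulation diluted to the stated g/ha rate was sprayed onto stems and leaves. Effects were scored on a 0–5 scale (herbicidal ratio bands) three weeks after treatment.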

[2] = system: Abutilon theophrasti; assay: Test Example 4: herbicidal effect by application to foliage (diluvial soil, plastic box); conditions: 320 g/ha; for M (Abutilon theophrasti) herbicidal effect grade: foliage application
Procedure, shortened: (§1)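 Scores run from 0 (herbicidal ratio ≤5%) to 5 (≥90%, almost fully withered) and were assessed three weeks after foliar spraying. Seedlings had been raised for 14 days at 25-30° C in sterilized diluvial soil before treatment, with the emulsion diluted in water to the stated g/ha dose.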

[3] = system: Alopecurus myosuroides; assay: as above; conditions: 320 g/ha; for J (Alopecurus myosuroides) herbicidal effect grade: foliage application
Procedure, shortened: as §1

[4] = system: Amaranthus retroflexus; assay: as above; conditions: 320 g/ha; for N (Amaranthus retroflexus) herbicidal effect grade: foliage application
Procedure, shortened: as §1

[5] = system: Apera spica-venti.; assay: as above; conditions: 320 g/ha; for L (Apera spica-venti.) herbicidal effect grade: foliage application
Procedure, shortened: as §1

[6] = system: Avena fatua; assay: as above; conditions: 320 g/ha; for I (Avena fatua) herbicidal effect grade: foliage application
Procedure, shortened: as §1

[7] = system: Chenopodium album; assay: as above; conditions: 320 g/ha; for O (Chenopodium album) herbicidal effect grade: foliage application
Procedure, shortened: as §1

[8] = system: Digitaria ciliaris; assay: as above; conditions: 320 g/ha; for F (Digitaria ciliaris) herbicidal effect grade: foliage application
Procedure, shortened: as §1

[9] = system: Echinochloa crus-galli var. crus-galli; assay: as above; conditions: 320 g/ha; for H (Echinochloa crus-galli var. crus-galli) herbicidal effect grade: foliage application
Procedure, shortened: as §1

[10] = system: Galium spurium; assay: as above; conditions: 320 g/ha; for Q (Galium spurium) herbicidal effect grade: foliage application
Procedure, shortened: as §1

[11] = system: Lolium multiflorum Lam.; assay: as above; conditions: 320 g/ha; for K (Lolium multiflorum Lam.) herbicidal effect grade: foliage application
Procedure, shortened: as §1

[12] = system: Setaria viridis; assay: as above; conditions: 320 g/ha; for G (Setaria viridis) herbicidal effect grade: foliage application
Procedure, shortened: as §1

[13] = system: Stellaria media; assay: as above; conditions: 320 g/ha; for P (Stellaria media) herbicidal effect grade: foliage application
Procedure, shortened: as §1

[14] = system: Veronica persica; assay: as above; conditions: 320 g/ha; for R (Veronica persica) herbicidal effect grade: foliage application
Procedure, shortened: as §1

[15] = system: Beta vulgaris ssp. vulgaris; assay: Test Example 4: effect on crop by application to foliage (diluvial soil, plastic box); conditions: 320 g/ha; for f (Beta vulgaris ssp. vulgaris) effect on crop grade: foliage application
Procedure, shortened: as §1

[16] = system: Brassica campestris L.; assay: as above; conditions: 320 g/ha; for g (Brassica campestris L.) effect on crop grade: foliage application
Procedure, shortened: as §1

[17] = system: Glycine max; assay: as above; conditions: 320 g/ha; for c (Glycine max) effect on crop grade: foliage application
Procedure, shortened: as §1

[18] = system: Triticum aestivum; assay: as above; conditions: 320 g/ha; for e (Triticum aestivum) effect on crop grade: foliage application
Procedure, shortened: as §1

[19] = system: Zea mays; assay: as above; conditions: 320 g/ha; for b (Zea mays) effect on crop grade: foliage application
Procedure, shortened: as §1

[20] = system: directly sowed Oryza sativa; assay: as above; conditions: 320 g/ha; for d (directly sowed Oryza sativa) effect on crop grade: foliage application
Procedure, shortened: as §1

SMILES: Cn1nnnc1NC(=O)c1ccc(C(F)(F)F)n2c(SCc3ccccc3)nnc12 [2-076]
- b (effect on crop grade) [1]: 1 (Herbicidal ratio of 5% or more and less than 20%)
- herbicidal effect, M (Abutilon theophrasti) ([2]; application to foliage): 4 (Herbicidal ratio of 70% or more and less than 90%)
- herbicidal effect, J (Alopecurus myosuroides) ([3]; application to foliage): 1 (Herbicidal ratio of 5% or more and less than 20%)
- herbicidal effect, N (Amaranthus retroflexus) ([4]; application to foliage): 5 (Herbicidal ratio of 90% or more (almost completely withered))
- herbicidal effect, L (Apera spica-venti.) ([5]; application to foliage): 2 (Herbicidal ratio of 20% or more and less than 40%)
- herbicidal effect, I (Avena fatua) ([6]; application to foliage): 1 (Herbicidal ratio of 5% or more and less than 20%)
- herbicidal effect, O (Chenopodium album) ([7]; application to foliage): 5 (Herbicidal ratio of 90% or more (almost completely withered))
- herbicidal effect, F (Digitaria ciliaris) ([8]; application to foliage): 3 (Herbicidal ratio of 40% or more and less than 70%)
- herbicidal effect, H (Echinochloa crus-galli var. crus-galli) ([9]; application to foliage): 5 (Herbicidal ratio of 90% or more (almost completely withered))
- herbicidal effect, Q (Galium spurium) ([10]; application to foliage): 3 (Herbicidal ratio of 40% or more and less than 70%)
- herbicidal effect, K (Lolium multiflorum Lam.) ([11]; application to foliage): 1 (Herbicidal ratio of 5% or more and less than 20%)
- herbicidal effect, G (Setaria viridis) ([12]; application to foliage): 3 (Herbicidal ratio of 40% or more and less than 70%)
- herbicidal effect, P (Stellaria media) ([13]; application to foliage): 5 (Herbicidal ratio of 90% or more (almost completely withered))
- herbicidal effect, R (Veronica persica) ([14]; application to foliage): 5 (Herbicidal ratio of 90% or more (almost completely withered))
- effect on crop, f (Beta vulgaris ssp. vulgaris) ([15]; application to foliage): 5 (Herbicidal ratio of 90% or more (almost completely withered))
- effect on crop, g (Brassica campestris L.) ([16]; application to foliage): 4 (Herbicidal ratio of 70% or more and less than 90%)
- effect on crop, c (Glycine max) ([17]; application to foliage): 0 (Herbicidal ratio of 5% or less (almost no effect))
- effect on crop, e (Triticum aestivum) ([18]; application to foliage): 0 (Herbicidal ratio of 5% or less (almost no effect))
- effect on crop, b (Zea mays) ([19]; application to foliage): 1 (Herbicidal ratio of 5% or more and less than 20%)
- effect on crop, d (directly sowed Oryza sativa) ([20]; application to foliage): 1 (Herbicidal ratio of 5% or more and less than 20%)

SMILES: Cn1nnnc1NC(=O)c1ccc(C(F)(F)F)n2c(-c3cccs3)nnc12 [2-061]
- b (effect on crop grade) [1]: 5 (Herbicidal ratio of 90% or more (almost completely withered))
- M (Abutilon theophrasti) herbicidal effect grade [2]: 4 (Herbicidal ratio of 70% or more and less than 90%)
- J (Alopecurus myosuroides) herbicidal effect grade [3]: 3 (Herbicidal ratio of 40% or more and less than 70%)
- N (Amaranthus retroflexus) herbicidal effect grade [4]: 5 (Herbicidal ratio of 90% or more (almost completely withered))
- L (Apera spica-venti.) herbicidal effect grade [5]: 3 (Herbicidal ratio of 40% or more and less than 70%)
- I (Avena fatua) herbicidal effect grade [6]: 4 (Herbicidal ratio of 70% or more and less than 90%)
- O (Chenopodium album) herbicidal effect grade [7]: 5 (Herbicidal ratio of 90% or more (almost completely withered))
- F (Digitaria ciliaris) herbicidal effect grade [8]: 5 (Herbicidal ratio of 90% or more (almost completely withered))
- H (Echinochloa crus-galli var. crus-galli) herbicidal effect grade [9]: 5 (Herbicidal ratio of 90% or more (almost completely withered))
- Q (Galium spurium) herbicidal effect grade [10]: 3 (Herbicidal ratio of 40% or more and less than 70%)
- K (Lolium multiflorum Lam.) herbicidal effect grade [11]: 4 (Herbicidal ratio of 70% or more and less than 90%)
- G (Setaria viridis) herbicidal effect grade [12]: 5 (Herbicidal ratio of 90% or more (almost completely withered))
- P (Stellaria media) herbicidal effect grade [13]: 5 (Herbicidal ratio of 90% or more (almost completely withered))
- R (Veronica persica) herbicidal effect grade [14]: 5 (Herbicidal ratio of 90% or more (almost completely withered))
- f (Beta vulgaris ssp. vulgaris) effect on crop grade [15]: 5 (Herbicidal ratio of 90% or more (almost completely withered))
- g (Brassica campestris L.) effect on crop grade [16]: 4 (Herbicidal ratio of 70% or more and less than 90%)
- c (Glycine max) effect on crop grade [17]: 3 (Herbicidal ratio of 40% or more and less than 70%)
- e (Triticum aestivum) effect on crop grade [18]: 3 (Herbicidal ratio of 40% or more and less than 70%)
- b (Zea mays) effect on crop grade [19]: 5 (Herbicidal ratio of 90% or more (almost completely withered))
- d (directly sowed Oryza sativa) effect on crop grade [20]: 4 (Herbicidal ratio of 70% or more and less than 90%)

SMILES: Cn1nnnc1NC(=O)c1ccc(C(F)(F)F)n2c(-c3cc(Cl)cc(Cl)c3)nnc12 [2-064]
- b (effect on crop grade) [1]: 0 (Herbicidal ratio of 5% or less (almost no effect))
- M (Abutilon theophrasti) herbicidal effect grade [2]: 5 (Herbicidal ratio of 90% or more (almost completely withered))
- J (Alopecurus myosuroides) herbicidal effect grade [3]: 0 (Herbicidal ratio of 5% or less (almost no effect))
- N (Amaranthus retroflexus) herbicidal effect grade [4]: 5 (Herbicidal ratio of 90% or more (almost completely withered))
- L (Apera spica-venti.) herbicidal effect grade [5]: 0 (Herbicidal ratio of 5% or less (almost no effect))
- I (Avena fatua) herbicidal effect grade [6]: 0 (Herbicidal ratio of 5% or less (almost no effect))
- O (Chenopodium album) herbicidal effect grade [7]: 5 (Herbicidal ratio of 90% or more (almost completely withered))
- F (Digitaria ciliaris) herbicidal effect grade [8]: 3 (Herbicidal ratio of 40% or more and less than 70%)
- H (Echinochloa crus-galli var. crus-galli) herbicidal effect grade [9]: 3 (Herbicidal ratio of 40% or more and less than 70%)
- Q (Galium spurium) herbicidal effect grade [10]: 1 (Herbicidal ratio of 5% or more and less than 20%)
- K (Lolium multiflorum Lam.) herbicidal effect grade [11]: 0 (Herbicidal ratio of 5% or less (almost no effect))
- G (Setaria viridis) herbicidal effect grade [12]: 2 (Herbicidal ratio of 20% or more and less than 40%)
- P (Stellaria media) herbicidal effect grade [13]: 5 (Herbicidal ratio of 90% or more (almost completely withered))
- R (Veronica persica) herbicidal effect grade [14]: 5 (Herbicidal ratio of 90% or more (almost completely withered))
- f (Beta vulgaris ssp. vulgaris) effect on crop grade [15]: 4 (Herbicidal ratio of 70% or more and less than 90%)
- g (Brassica campestris L.) effect on crop grade [16]: 3 (Herbicidal ratio of 40% or more and less than 70%)
- c (Glycine max) effect on crop grade [17]: 0 (Herbicidal ratio of 5% or less (almost no effect))
- e (Triticum aestivum) effect on crop grade [18]: 0 (Herbicidal ratio of 5% or less (almost no effect))
- b (Zea mays) effect on crop grade [19]: 0 (Herbicidal ratio of 5% or less (almost no effect))
- d (directly sowed Oryza sativa) effect on crop grade [20]: 3 (Herbicidal ratio of 40% or more and less than 70%)

SMILES: COCCNc1nnc2c(C(=O)Nc3nnnn3C)ccc(C(F)(F)F)n12 [2-074]
- b (effect on crop grade) [1]: 5 (Herbicidal ratio of 90% or more (almost completely withered))
- M (Abutilon theophrasti) herbicidal effect grade [2]: 4 (Herbicidal ratio of 70% or more and less than 90%)
- J (Alopecurus myosuroides) herbicidal effect grade [3]: 3 (Herbicidal ratio of 40% or more and less than 70%)
- N (Amaranthus retroflexus) herbicidal effect grade [4]: 5 (Herbicidal ratio of 90% or more (almost completely withered))
- L (Apera spica-venti.) herbicidal effect grade [5]: 3 (Herbicidal ratio of 40% or more and less than 70%)
- I (Avena fatua) herbicidal effect grade [6]: 4 (Herbicidal ratio of 70% or more and less than 90%)
- O (Chenopodium album) herbicidal effect grade [7]: 5 (Herbicidal ratio of 90% or more (almost completely withered))
- F (Digitaria ciliaris) herbicidal effect grade [8]: 5 (Herbicidal ratio of 90% or more (almost completely withered))
- H (Echinochloa crus-galli var. crus-galli) herbicidal effect grade [9]: 5 (Herbicidal ratio of 90% or more (almost completely withered))
- Q (Galium spurium) herbicidal effect grade [10]: 3 (Herbicidal ratio of 40% or more and less than 70%)
- K (Lolium multiflorum Lam.) herbicidal effect grade [11]: 3 (Herbicidal ratio of 40% or more and less than 70%)
- G (Setaria viridis) herbicidal effect grade [12]: 4 (Herbicidal ratio of 70% or more and less than 90%)
- P (Stellaria media) herbicidal effect grade [13]: 4 (Herbicidal ratio of 70% or more and less than 90%)
- R (Veronica persica) herbicidal effect grade [14]: 5 (Herbicidal ratio of 90% or more (almost completely withered))
- f (Beta vulgaris ssp. vulgaris) effect on crop grade [15]: 5 (Herbicidal ratio of 90% or more (almost completely withered))
- g (Brassica campestris L.) effect on crop grade [16]: 4 (Herbicidal ratio of 70% or more and less than 90%)
- c (Glycine max) effect on crop grade [17]: 3 (Herbicidal ratio of 40% or more and less than 70%)
- e (Triticum aestivum) effect on crop grade [18]: 3 (Herbicidal ratio of 40% or more and less than 70%)
- b (Zea mays) effect on crop grade [19]: 5 (Herbicidal ratio of 90% or more (almost completely withered))
- d (directly sowed Oryza sativa) effect on crop grade [20]: 4 (Herbicidal ratio of 70% or more and less than 90%)
